Experiments:
[1] = test system: human neutrophils (PMNLs); assay: oxidative burst (superoxide production, cytochrome c reduction) in human neutrophils; type: cell-based
Source text: This example provides studies of oxidative burst and chemotaxis in human neutrophils. Oxidative (respiratory) burst in polymorphonuclear nuetrophils (PMN) is a major mechanism of defense against bacterial and/or viral pathogens. Oxidative burst is a complex process resulting in the generation by PMN of a huge amount of oxygen free radicals (superoxide and hydroxyl radicals) and chemically reactive substances—hydrogen peroxide and hypochlorite. The mechanism of cell activation involves such steps as increase of intracellular Ca^2+ concentration upon the interaction of activator, increasing the activity of protein kinase C, activation of NADPH oxidase with subsequent generation of superoxide radicals and hydrogen peroxide in the phagosomes and in the surrounding area, releasing and activation of myeloperoxidase and production of hypochlorite (HOCL).
The respiratory burst in PMNLs (isolated from fresh heparinized whole blood by dextran sedimentation) was initiated by the addition of N-formylmethionyl-leucyl-phenylalanine-methylester, FLPM (10^−7M), phorbol12,13-miristate, acetate, PMA (0.01 μg/ml) and opsonized zimozan (1.0 mg/ml). Superoxide production was assayed by the superoxide dismutase-22 inhibitable reduction of cytochrome c. […]

[2] = test system: human keratinocyte cells; assay: AMVN-induced hypodiploidy (apoptosis) in keratinocytes, flow cytometric analysis; type: cell-based
Source text: Nucleus/DNA of cells treated with chemical or physical agents undergo changes primarily by the activation of the nucleases, before they lose the membrane integrity. Such changes are due to the loss of DNA or fragmentation of the nucleus into apoptotic bodies. Flow cytomeric analysis of a population of cells can reveal the appearance of a hypodiploid population and changes in the stages of the cell cycle.
AMVN induces changes in the cell cycle pattern and it can be modified either by calcitriol or ST-630. […] AMVN-derived peroxyl radicals primarily cause damage to the DNA and repair of DNA is accomplished during the G1 or G2 block. When keratinocytes were treated with various concentrations of ST-630 or calcitriol, and subsequently exposed to AMVN there was a considerable reduction in the level of hypodiploid cells. This effect was concentration-dependent. […] The highest concentration of calcitriol used, i.e. 500 nM reduced the hypodiploidy by 60%. […] 10 nM of ST-630 blocked the hypodiploidy by 60%.

[3] = test system: cultured human keratinocytes; assay: 3H-thymidine incorporation into keratinocyte DNA (proliferation); type: cell-based; details: 42 h and 66 h after initial dosing with 10^-8 M
Procedure: Two experimental approaches were performed to assess the effect of ST-630 on the proliferation of cultured human keratinocytes. The first one was the ^3H-thymidine incorporation experiments that involved the use of a radiolabeled nucleotide which is specifically found in newly synthesized DNA molecules only. The second approach used in this study was the basal cell count. Although it is tedious, the second method is a more definitive way to determine cellular proliferation. Our results clearly establish the potency and the long-lasting effects of ST-630 in inhibiting cellular proliferation as determined by ^3H-thymidine and basal cell count.

[4] = test system: cultured keratinocytes; details: cited from earlier work
[5] = test system: keratinocytes; assay: cis-parinaric acid (PnA) assay of AMVN-induced phospholipid oxidation in live keratinocytes; type: cell-based, human
Procedure: Comparison of the Antioxidant Potency of ST-630 with that of Calcitriol and Alpha-Tocopherol in Live Keratinocytes Using the Cis-parinaric Acid (PnA) assay […].
Keratinocytes were incubated in the presence of a complex of PnA with human serum albumin (PnA-HSA) for up to […] to incorporate PnA into cellular phospholipids. […] The incorporation of PnA in the various phospholipids was differential and the amount of PnA incorporated was in the following order: PC>PEA>PI>PS>SPH>DPG. The constituent phospholipids were separated from the total lipid extract by HPLC. Major fluorescence peaks were identified using authentic phospholipids standards including DPG, PI, PEA, PS, PC and SPH.
To determine the effects of ST-630 on keratinocytes subjected to oxidative stress cell suspensions labeled with PnA were incubated with or without ST-630 (5-500 nM) in the dark at 37° C. for 1 hr in the presence of […] AMVN. Based on the known rate constant of AMVN decomposition under the experimental conditions employed (Niki, 1990), at 0.5 mM it can be estimated that 2.4 nanomoles (nmoles) of peroxyl radicals are generated per hour at 37° C. in each incubation containing 10^6 cells. Incubation of keratinocytes with AMVN for 1 hr induced significant oxidation of all the detected phospholipids.

[6] = test system: human neutrophils; assay: chemotaxis in human neutrophils, multiwell chamber with FLPM; type: cell-based; details: higher concentrations of FLPM as chemotactic factor
Source text: For chemotaxis assay, chemotactic solution (medium 199 containing 0.5% BSA and FLPM) and multiwell chamber were used. The numbers of migrated neutrophils for different concentrations of FLPM (as a chemotactic factor) were within the usually observable range (see Table 4 in the Appendix). […] Despite this, the data are consistent with the effects of these compounds on superoxide release. Both ST-630 and calcitriol appear to be inhibitory when higher concentrations of FLPM were used.

[7] = test system: Propionibacterium acnes; assay: antibacterial disc inhibition zone test; type: cell-based; details: 6 mm filter paper discs, 48 hr at 36° C.
Procedure: Propionibacterium acnes, the target of inflammation in acne, was tested for its sensitivity to ST-630 and calcitriol using the inhibition method standardly employed for assessment of antibiotic efficiency. The strain (lyophilized) P. acnes (batch # 96-09SV) was received from the US type culture collection (Rockville, Md.). It was revitalized in 0.5 ml freshly boiled (10 min) reinforced Clostridial medium. ST-630 or calcitriol dissolved in 5.0 μl DMSO were applied onto the top of sterilized discs made of filter paper (6 mm). Erythromycin (15 μg) and DMSO (5.0 μl) were used as controls (positive and negative, respectively). The plates were incubated for 48 hr at 36° C. and the diameter of the inhibition zone was measured. […] The antibacterial activity of ST-630 at concentration 12.8 μg was about 2.7-fold lower than that of 15 μg of erythromycin. We conclude that ST-630 (but not calcitriol) exerts a significant inhibitory antibacterial activity towards P. acnes.

| Compound | superoxide release with known stimulants (FLPM, PMA, opsonized zymosan) [1] | reduction of AMVN-induced hypodiploidy ([2]; 10 nM) | effect on cell cycle ([2]; 10 nM, then AMVN) | reduction of AMVN-induced hypodiploidy ([2]; 500 nM) | inhibitory (antiproliferative) activity with time [3] | metabolism in cultured keratinocytes [4] | concentration giving maximum antioxidant effectiveness/protection against AMVN-induced oxidation ([5]; PnA-labeled keratinocytes, 0.5 mM AMVN, 1 hr, 37° C.) | concentration-dependency of the protective effect ([5]; PnA-labeled keratinocytes, AMVN) | effect on chemotaxis [6] | antibacterial activity (inhibition zone) [7] | antioxidant action compared with the other compounds ([5]; concentrations 250 and 500 nm) |
| --- | --- | --- | --- | --- | --- | --- | --- | --- | --- | --- | --- |
| C=C1/C(=C\C=C2/CCC[C@]3(C)[C@@H]([C@H](C)CCCC(C)(C)O)CC[C@@H]23)C[C@@H](O)C[C@@H]1O [calcitriol, reference compound] | act to prime for supertoxide release | 40% | blocked the cells at the G2/M phase | 60% | diminished with time | rapidly metabolized | 25 to 50 nM | two-phase protection pattern | inhibitory | Neither DMSO nor calcitriol exerted any antibacterial activity | – |
| Cc1c(C)c2c(c(C)c1O)CC[C@@](C)(CCC[C@H](C)CCC[C@H](C)CCCC(C)C)O2 [vitamin E, Alpha-Tocopherol, reference compound] | – | – | – | – | – | – | – | – | – | – | comparable to that of ST-630 |
